Measurements taken from patent US20240174625A1, “COMPOSITIONS AND METHODS FOR TREATING TAUOPATHIES” (The Regents of the University of California, priority 2021, published 2024).

How the values were obtained:
HEK293T cells = experiment: Cell viability assay (CellTiter Glo); type: cell-based, human; settings: for IC50: Homo sapiens, HEK-293T, log10 transformed, IC50 = concentration that suppresses 50% cell viability, HEK293T cells; for Therapeutic index: ratio of IC50 (cell viability) over EC50 (NPEPPS activity)
Method: HEK293T cells (AATC) were maintained in complete media and cell viability assay was conducted in a fresh-prepared minimal medium containing essential amino acids, vitamin, AlbuMax (Invitrogen 11021-029) in 1×HBS buffer. White 384-well assay plates (Greiner EK-30080) were coated with poly-L-ornithine (0.1 mg/ml) overnight and washed once with 1×PBS. 15 μl minimal medium was then added to each well. 250 nl of compounds dissolved in OmniSolve DMSO were pinned to each well via Biomek FX^P Liquid Handling Automation from compound source plates. Cells were harvested, resuspended in minimal medium, and seeded at 16,500 cells/15 μl/well in the 384-well assay plates. 24 hrs later, 25 μl/well CellTiter Glo reagent (Promega G7572) was added into each well, and luminescence (0.5 second integration time) was acquired following manufacture's protocol. Luminescence count normalized to DMSO control is used as a readout of cell viability.
(§1) To investigate the effects of JMM compounds that enhance NPEPPS activity and assess their cellular toxicity, 139 compounds in the JMM series (i.e., JMM001-JMM139) were tested in dose responses (20-step, 2-fold dilution) using NPEPPS activity and viability assays in HEK293T cells. 76 compounds harboring different modifications produce concentration-dependent enhancement on NPEPPS activity compared to DMSO control (FIG. 4). […] A therapeutic index (TI, a ratio of IC50 over EC50) is used to evaluate the relative safety profiles of the compounds. […] 16 JMM compounds show both improved potency and reduced toxicity (EC50<10 μM and TI>10, Table 1).

NPEPPS = molecular target: T1, NPEPPS (Homo sapiens, UniProt P55786); experiment: Cell-based NPEPPS activity assay (Q-AMC fluorescence); settings: log10 transformed; EC50 = concentration that elevates 50% NPEPPS activity (150% of DMSO baseline); HEK293T cells
T1 construct: endogenous in cells; host or cells: HEK293T
Method: HEK293T cells (AATC) were maintained in a complete media containing DMEM (Gibco 11995-065) in the presence of 10% fetal bovine serum (FBS, Gibco 10082147), […] penicillin and 50 μg/ml streptomycin (Gibco 15140163) at 37° C. with 5% CO2. NPEPPS activity assay was conducted in a fresh-prepared minimal medium containing essential amino acids, vitamin, AlbuMax (Invitrogen 11021-029) in 1×HBS buffer. Black wall, clear bottom 384-well assay plates (Greiner EK-30092) were coated with poly-L-ornithine (0.1 mg/ml, Sigma P3655) overnight and washed once with 1×PBS. 15 μl minimal medium was then added to each well. 250 nL of compounds dissolved in OmniSolve methylsulfoxide (dimethyl sulfoxide, DMSO, Sigma MX1456P) were pinned to each well via Biomek FX^P Liquid Handling Automation (Beckman Coulter) from compound source plates, i.e., either pre-made compound libraries or JMM compounds (20-step, 2-fold dilution) dissolved in OmniSolve DMSO prepared via Biomek automation in 384-well clear V-bottom polypropylene microplates (ThermoScientific 50-823-639). Cells were harvested, resuspended in minimal medium, and seeded at 16,500 cells/15 μl/well in the 384-well assay plates. 24 hrs later, 30 μl 200 μM H-Gln-AMC hydrobromide salt (Q-AMC, Bachem #I-1175) in 1×HBS containing 0.1% DMSO was added into each well. The fluorescent signal at excitation/emission wavelengths of 360/460 nm was measured immediately upon Q-AMC addition and 3 hrs post-Q-AMC. The change in fluorescence is measured as a readout of NPEPPS activity.
To identify small molecules that either increase NPEPPS levels or NPEPPS activity, a cell-based NPEPPS activity assay amenable to high-throughput screening (HTS) by adapting a fluorescent peptidase activity assay^2 was developed. Since NPEPPS is one of the only aminopeptidases capable of cleaving glutamine-peptide bonds^3 and the major aminopeptidase responsible for degradation of poly-glutamine sequences in the brain^4, a fluorogenic compound, glutamine-7-amino-4-methylcoumarin (Q-AMC), was selected as a substrate to measure NPEPPS activity. The peptide bond of Q-AMC is hydrolyzed by NPEPPS to release glutamine and a fluorescent product, 7-amino-4-methylcoumarin (AMC), when Q-AMC is added directly to the cell culture media. This change in fluorescence is measured as a readout of aminopeptidase activity (FIG. 2A). Overexpression of NPEPPS in HEK293T cells results in a significant increase in fluorescence, whereas knock-down or chemical inhibition of NPEPPS decrease fluorescence change (FIG. 2B-D), validating that the changes in fluorescence observed in the Q-AMC-based assay directly correlate with changes in NPEPPS activity. A high-throughput (HTS) screen (201,845 compounds) was conducted at the UCLA MSSR core (FIG. 2E). Follow-up assays and chemical clustering identified three series of compounds with distinct chemical clusters (FIG. 2F).
as §1

T1 sequence (P55786 whole entry): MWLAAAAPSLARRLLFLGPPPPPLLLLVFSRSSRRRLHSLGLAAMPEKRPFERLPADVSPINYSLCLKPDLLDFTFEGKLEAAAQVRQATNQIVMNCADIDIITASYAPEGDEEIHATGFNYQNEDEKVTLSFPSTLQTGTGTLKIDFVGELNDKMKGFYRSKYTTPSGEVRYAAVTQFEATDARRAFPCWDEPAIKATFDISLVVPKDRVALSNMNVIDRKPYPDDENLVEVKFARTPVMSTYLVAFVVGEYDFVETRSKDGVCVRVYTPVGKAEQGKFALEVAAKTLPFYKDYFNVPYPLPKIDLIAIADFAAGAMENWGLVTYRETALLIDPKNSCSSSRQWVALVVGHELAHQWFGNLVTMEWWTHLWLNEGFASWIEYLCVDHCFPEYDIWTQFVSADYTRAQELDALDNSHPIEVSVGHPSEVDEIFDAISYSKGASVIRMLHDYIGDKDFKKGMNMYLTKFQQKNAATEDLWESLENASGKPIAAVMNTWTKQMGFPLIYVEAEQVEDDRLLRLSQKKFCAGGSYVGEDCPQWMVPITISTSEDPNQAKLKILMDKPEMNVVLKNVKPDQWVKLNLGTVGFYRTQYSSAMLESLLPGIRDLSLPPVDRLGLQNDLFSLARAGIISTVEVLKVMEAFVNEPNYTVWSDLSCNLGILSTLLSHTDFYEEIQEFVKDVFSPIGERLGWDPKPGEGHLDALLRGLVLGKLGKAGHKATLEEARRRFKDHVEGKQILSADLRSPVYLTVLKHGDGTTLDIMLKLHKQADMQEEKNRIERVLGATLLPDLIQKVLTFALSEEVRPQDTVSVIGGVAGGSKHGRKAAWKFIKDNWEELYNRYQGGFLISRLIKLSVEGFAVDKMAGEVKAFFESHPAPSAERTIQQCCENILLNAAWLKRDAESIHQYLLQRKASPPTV

SMILES | IC50 (HEK293T cells) | Therapeutic index (HEK293T cells) | EC50 (NPEPPS)
FC(F)(F)c1ccc(COc2ccc(CNc3nsc4ccccc34)cc2)cc1 [JMM031] | 77.6 µM | 10.38 | 7.41 µM
FC(F)(F)c1cccc(CNc2nsc3ccccc23)c1 [JMM032] | 3090 µM | 62.09 | 50.1 µM
FC(F)(F)c1ccc(CNc2nccc3ccccc23)cc1 [JMM037] | 95.5 µM | 0.84 | 112 µM
FC(F)(F)c1ccc(CNc2n[nH]c3ccccc23)cc1 [JMM038] | 105 µM | 1.06 | 100 µM
FC(F)(F)c1ccc(CNc2noc3ccccc23)cc1 [JMM039] | 61.7 µM | 3.03 | 20.4 µM
COc1ccc(CNc2noc3ccccc23)cc1OC [JMM040] | 251 µM | 1.00 | 251 µM
COc1ccc(CNc2nsc3c(Br)cccc23)cc1OC [JMM041] | 245 µM | 2.37 | 105 µM
COc1ccc(CNc2nsc3c(F)cccc23)cc1OC [JMM042] | 58.9 µM | 10.41 | 5.75 µM
O=[N+]([O-])c1ccc(CNc2nsc3ccccc23)cc1 [JMM043] | 309 µM | 3.79 | 81.3 µM
N#Cc1ccc(CNc2nsc3ccccc23)cc1 [JMM044] | 417 µM | 6.68 | 63.1 µM
Fc1ccc(NCc2ccc(C(F)(F)F)cc2)nc1 [JMM045] | 186 µM | 3.49 | 53.7 µM
COc1ccc(CNc2ccc(F)cn2)cc1OC [JMM046] | 479 µM | 2.24 | 214 µM
COc1ccc(CNc2n[nH]c3ccccc23)cc1OC [JMM047] | 170 µM | 2.85 | 60.3 µM
COc1ccc(CNc2ncccn2)cc1OC [JMM048] | 562 µM | 1.09 | 525 µM
FC(F)(F)c1ccc(CNc2ncccn2)cc1 [JMM049] | 162 µM | 2.93 | 56.2 µM
FC(F)(F)c1ccc(C(Nc2nsc3ccccc23)c2ccc(C(F)(F)F)cc2)cc1 [JMM051] | 14.1 µM | 2.03 | 7.08 µM
COc1ccc(C(Nc2nsc3ccccc23)c2ccc(OC)cc2)cc1 [JMM053] | 3390 µM | 335.12 | 10 µM
FC(F)(F)Oc1ccc(CNc2nsc3ccccc23)cc1 [JMM054] | 132 µM | 1.08 | 123 µM

SMILES | IC50 (HEK293T cells) | Therapeutic index (HEK293T cells) | EC50 (NPEPPS)
FC(F)(F)Oc1ccccc1CNc1nsc2ccccc12 [JMM055] | 126 µM | 2.43 | 52.5 µM
Fc1cccc2c(NCc3ccccc3C(F)(F)F)nsc12 [JMM056] | 81.3 µM | 2.34 | 34.7 µM
Fc1cccc2c(NC(c3ccccc3)c3ccccc3)nsc12 [JMM057] | 151 µM | 4.85 | 31.6 µM
c1ccc(CNc2nsc3ccccc23)nc1 [JMM058] | 741 µM | 7.17 | 105 µM
FC(F)(F)c1ccc(CNc2nsc3ncccc23)cc1 [JMM059] | 120 µM | 1.78 | 67.6 µM
FC(F)(F)c1ccc(CNc2nsc3cccnc23)cc1 [JMM060] | 102 µM | 1.88 | 53.7 µM
FC(F)(F)c1ccc(CNc2nsc3ccccc23)c(C(F)(F)F)c1 [JMM061] | 72.4 µM | 6.85 | 10.5 µM
FC(F)c1ccc(CNc2nsc3ccccc23)cc1 [JMM063] | 195 µM | 1.33 | 148 µM
C#Cc1cccc2c(NCc3ccc(C(F)(F)F)cc3)nsc12 [JMM064] | 69.2 µM | 2.30 | 30.2 µM
FC(F)(F)c1ccc(CNc2nsc3cnccc23)cc1 [JMM065] | 132 µM | 5.91 | 22.4 µM
FC(F)(F)c1ccc(CNc2nsc3ccc(OCc4ccccc4)cc23)cc1 [JMM066] | 174 µM | 27.03 | 6.46 µM
COc1ccc(CN(C)c2nsc3ccccc23)cc1OC [JMM068] | 132 µM | 2.22 | 58.9 µM
COc1ccc(CN(Cc2ccc(C(F)(F)F)cc2)c2nsc3ccccc23)cc1OC [JMM069] | 1510 µM | 84.99 | 17.8 µM
N#Cc1cccc2c(NCc3ccc(C(F)(F)F)cc3)nsc12 [JMM070] | 2630 µM | 13.25 | 200 µM
FC(F)(F)c1ccc(CN(Cc2ccccc2)c2nsc3ccccc23)cc1 [JMM072] | 155 µM | 11.52 | 13.5 µM
Fc1ccccc1CNc1nsc2ccccc12 [JMM073] | 316 µM | 2.30 | 138 µM
CC(Nc1nsc2ccccc12)c1ccccc1 (stereo not drawn) [JMM075] | 132 µM | 0.65 | 200 µM
Clc1ccc(C(Nc2nsc3ccccc23)c2ccc(Cl)cc2)cc1 [JMM076] | 20 µM | 2.03 | 9.77 µM
